# Measurements: patent US20160310434A1, “GASTRO-RETENTIVE ORAL PHARMACEUTICAL COMPOSITIONS” (ETHYPHARM, priority 2013, published 2016)
# Tests used:
# Type in all cases: physicochemical
# Solubilities of baclofen = test: Solubilities of baclofen
# From the text: (§1) Baclofen (below) is a BCS class III molecule.
# pKa of baclofen = test: pKa of baclofen
# From the text: as §1
# Log P of baclofen = test: Log P of baclofen
# From the text: as §1
# At usual therapeutic doses, baclofen is known to have good oral bioavailability. However, its low log P indicates some hydrophilicity and thus low permeability. This observation is explained by the presence of specific transporters at the small intestine allowing the molecule to pass. This is even greater at the jejunum. […] This region of the digestive system contains no transporters but since the molecule is hydrophilic and of small size, weak passive transport through the tight junctions is possible. It thus appears that when a higher plasma concentration of baclofen is required, the taking of a higher dose is not effective due to saturation of the transporters. The clinical solution is thus to take small doses at shorter time intervals, which can quickly become burdensome for the patient.
# [1] = pH of a saturated solution of baclofen
# From the text: as §1
smiles,measurement,setting,value
"NCC(CC(=O)O)c1ccc(Cl)cc1 (stereo not drawn) [baclofen, Baclofen]",Solubility,Solubilities of baclofen; 0.1N HCl,"Soluble: 0.1N HCl, 0.1N NaOH"
same,Solubility,Solubilities of baclofen; 0.1N NaOH,"Soluble: 0.1N HCl, 0.1N NaOH"
same,Solubility,Solubilities of baclofen; ethanol,"Very slightly soluble: ethanol, methanol"
same,Solubility,Solubilities of baclofen; methanol,"Very slightly soluble: ethanol, methanol"
same,Solubility,Solubilities of baclofen; water,Slightly soluble: water (3 mg/ml)
same,pKa1,pKa of baclofen,pKa1 = 3.87
same,pKa2,pKa of baclofen,pKa2 = 9.62
same,Log P,Log P of baclofen,−1
same,pH of a saturated solution,[1],6.5
